Results as given in the NIST ThermoML archive (doi:10.1021/je200673a).

Assay: molar heat capacity at constant pressure
Conditions: 101.33 kPa, Vacuum adiabatic calorimetry

C(#Cc1ccccc1)c1ccccc1 [1,2-diphenylethyne]
molar heat capacity at constant pressure [J/K/mol]
Conditions	Crystal	Liquid
122.93 K	102.01	–
123.75 K	102.53	–
124.57 K	103.09	–
125.39 K	103.65	–
126.22 K	103.97	–
127.04 K	104.54	–
127.87 K	104.88	–
128.69 K	105.58	–
129.52 K	106.14	–
130 K	106.33	–
130.34 K	106.59	–
131.19 K	107.21	–
132.02 K	107.62	–
132.85 K	107.99	–
133.68 K	108.55	–
134.51 K	108.88	–
135.34 K	109.34	–
136.17 K	110.18	–
137.01 K	110.88	–
137.84 K	111.19	–
138.67 K	111.61	–
139.51 K	112.13	–
140 K	112.5	–
140.35 K	112.75	–
141.18 K	113.14	–
142.02 K	113.86	–
142.86 K	114.26	–
143.7 K	114.81	–
144.56 K	115.47	–
145.4 K	115.88	–
146.24 K	116.41	–
147.08 K	117.03	–
147.93 K	117.53	–
148.77 K	118.01	–
149.61 K	118.61	–
150 K	118.79	–
150.46 K	119.09	–
151.31 K	119.49	–
152.15 K	120.1	–
153 K	120.73	–
153.85 K	121.21	–
154.7 K	121.63	–
155.55 K	122.47	–
156.4 K	122.86	–
157.25 K	123.14	–
158.14 K	124.01	–
158.99 K	124.43	–
159.85 K	125.3	–
160 K	125.14	–
160.7 K	125.66	–
161.56 K	125.9	–
162.42 K	126.63	–
163.28 K	127.28	–
164.14 K	127.86	–
165 K	128.31	–
165.86 K	128.78	–
166.72 K	129.29	–
167.58 K	130.02	–
168.45 K	130.59	–
169.31 K	131.32	–
170 K	131.53	–
170.18 K	131.71	–
171.05 K	132.15	–
171.96 K	132.79	–
172.83 K	133.42	–
173.7 K	133.85	–
174.57 K	134.6	–
175.44 K	135.11	–
176.31 K	135.5	–
177.19 K	135.99	–
178.06 K	136.73	–
178.94 K	137.42	–
179.82 K	137.82	–
180 K	138	–
180.7 K	138.43	–
181.58 K	138.91	–
182.46 K	139.54	–
183.34 K	140.11	–
184.22 K	140.8	–
185.11 K	141.42	–
186.05 K	142.12	–
186.93 K	142.62	–
187.82 K	143.19	–
188.71 K	143.74	–
189.6 K	144.35	–
190 K	144.57	–
190.5 K	144.84	–
191.39 K	145.31	–
192.29 K	146.01	–
193.18 K	146.68	–
194.08 K	147.37	–
194.98 K	147.95	–
196.78 K	149.26	–
197.68 K	149.46	–
198.59 K	150.29	–
199.5 K	151.03	–
200 K	151.06	–
200.7 K	151.27	–
202.04 K	151.99	–
203.39 K	152.98	–
204.73 K	154.54	–
206.08 K	154.9	–
207.42 K	155.84	–
208.77 K	156.73	–
210 K	157.57	–
210.11 K	157.51	–
211.46 K	158.55	–
212.8 K	159.5	–
214.14 K	160.32	–
215.49 K	161.29	–
216.83 K	162.37	–
218.17 K	163	–
219.51 K	164.34	–
220 K	164.63	–
220.86 K	165.39	–
222.28 K	166.49	–
223.62 K	167.21	–
224.96 K	168.09	–
226.3 K	169.06	–
227.64 K	170.12	–
228.97 K	171	–
230 K	171.85	–
230.31 K	171.96	–
231.65 K	173.01	–
232.99 K	173.91	–
234.32 K	174.98	–
235.65 K	175.95	–
236.99 K	176.85	–
238.33 K	177.98	–
239.66 K	179.01	–
240 K	179.11	–
240.99 K	179.99	–
242.32 K	180.88	–
243.73 K	181.99	–
245.07 K	182.85	–
246.4 K	183.79	–
247.73 K	184.64	–
249.06 K	185.75	–
250 K	186.45	–
250.39 K	185.54	–
251.71 K	187.74	–
253.03 K	188.91	–
254.36 K	189.53	–
255.68 K	190.6	–
257 K	191.87	–
258.32 K	192.68	–
259.65 K	193.82	–
260 K	193.93	–
260.97 K	194.81	–
262.28 K	195.65	–
263.6 K	197.01	–
264.98 K	198.01	–
266.3 K	198.7	–
267.61 K	199.72	–
268.93 K	200.72	–
270 K	201.56	–
270.24 K	201.85	–
271.55 K	202.64	–
272.86 K	203.72	–
274.17 K	204.75	–
275.47 K	205.78	–
276.77 K	206.87	–
278.07 K	207.63	–
279.37 K	208.98	–
280 K	209.29	–
280.67 K	209.89	–
281.97 K	210.65	–
283.26 K	211.51	–
284.56 K	212.46	–
285.9 K	213.85	–
287.2 K	214.7	–
288.49 K	216.02	–
289.78 K	216.96	–
290 K	216.99	–
291.06 K	217.78	–
292.34 K	219.03	–
293.62 K	219.44	–
294.9 K	220.27	–
296.17 K	221.66	–
297.45 K	223.35	–
298.15 K	223.14	–
298.72 K	223.61	–
299.98 K	224.36	–
300 K	224.51	–
301.47 K	225.51	–
303.12 K	227.1	–
304.78 K	228.38	–
306.45 K	228.99	–
308.12 K	230.51	–
309.79 K	231.08	–
310 K	231.76	–
311.46 K	232.91	–
313.14 K	234.02	–
314.83 K	234.92	–
316.52 K	236.14	–
318.22 K	238.29	–
319.93 K	238.52	–
320 K	238.87	–
321.63 K	240.17	–
323.34 K	241.21	–
325.06 K	242.48	–
330 K	245.96	–
332.03 K	247.4	302
340 K	–	303.79
348.64 K	–	304.58
348.68 K	–	305.37
350 K	–	306.04
350.47 K	–	306.11
350.59 K	–	307.42
352.28 K	–	307.07
352.61 K	–	306.03
354.1 K	–	304.34
354.59 K	–	307.75
355.9 K	–	307.73
356.6 K	–	308.43
357.73 K	–	308.85
358.63 K	–	305.76
359.56 K	–	309.14
360 K	–	308.41
360.65 K	–	308.73
361.57 K	–	306.43
362.7 K	–	310.22
363.41 K	–	309.69
364.77 K	–	310.47
365.26 K	–	310.84
367.13 K	–	305.78
367.19 K	–	311.76
369.03 K	–	310.48
369.32 K	–	308.58
370 K	–	309.93
370.91 K	–	308.47
371.44 K	–	311.8
